Literature values as cited in patent US5714511A, “Selective prevention of organ injury in sepsis and shock using selection release of nitric oxide in vulnerable organs” (The United States of America as represented by the …, priority 1995, dated 1998).

Legend:
[1] = tested on: hemorrhagic shock in rats
[2] = tested on: DNA synthesis

Molecule: CC(=O)N[C@H](C(=O)O)C(C)(C)SN=O [SNAP, S-nitroso-N-acetyl-penicillamine]
- protective effect in hemorrhagic shock [1]: significant protective effects of SNAP in hemorrhagic shock in rats
- inhibition of DNA synthesis [2]: effective at inhibiting DNA synthesis

Molecule: Nitric oxide
- solubility in aqueous media: limited solubility in aqueous media
